Assay results published in patent US20200069648A1, “HALOALLYLAMINE PYRAZOLE DERIVATIVE INHIBITORS OF LYSYL OXIDASES AND USES THEREOF” (Pharmaxis Ltd., priority 2017, published 2020).
Counter-ions that a name gives are not always drawn.

Assays:
Bovine LOX = target: T1, Bovine LOX (Bos taurus, UniProt P33072); assay: LOX amine oxidase inhibition, peroxidase-coupled Amplex Red assay; assay type: biochemical; details: 30 min preincubation at 37° C., putrescine substrate
T1 sequence (P33072 170-418): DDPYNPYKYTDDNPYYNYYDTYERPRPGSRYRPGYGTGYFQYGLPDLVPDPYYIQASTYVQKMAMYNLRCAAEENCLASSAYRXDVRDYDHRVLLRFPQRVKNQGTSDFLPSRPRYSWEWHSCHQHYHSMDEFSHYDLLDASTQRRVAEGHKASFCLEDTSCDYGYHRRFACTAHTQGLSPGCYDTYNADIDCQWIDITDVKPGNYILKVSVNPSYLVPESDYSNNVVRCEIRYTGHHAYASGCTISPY
Text: (§1) Method to Determine the Ability of Compounds of the Invention to Inhibit LOX and LOXL1-4 from Different Sources
Lysyl oxidase (LOX) is an extracellular copper dependent enzyme which oxidizes peptidyl lysine and hydroxylysine residues in collagen and lysine residues in elastin to produce peptidyl alpha-aminoadipic-delta-semialdehydes. […] There are five LOX family members; these are LOX, LOXL1, LOXL2, LOXL3 and LOXL4. LOX and LOXL family members can be acquired as recombinant active proteins from commercial sources, or extracted from animal tissues like bovine aorta, tendons, pig skin; or prepared from cell cultures. The inhibitory effects of the compounds of the present invention were tested against the given LOX-LOXL preparation using a high-throughput coupled colorimetric method (Holt A. and Palcic M., A peroxidase-coupled continuous absorbance plate-reader assay for flavin monoamine oxidases, copper-containing amine oxidases and related enzymes. Nat. Protoc. 2006; 1: 2498-2505). The assay was developed using either 384 or 96 well format. Briefly, in a standard 384 well plate assay 25 μL of a dilution of any of the isoenzymes and orthologues in 1.2 M urea, 50 mM sodium borate buffer (pH 8.2) were added into each well in the presence of 1 μM mofegiline and 0.5 mM pargyline (to inhibit SSAO and MAO-B and MAO-A, respectively). […] Twenty five μL of a reaction mixture containing twice the KM concentration of putrescine (Sigma Aldrich, e.g. 20 mM for LOX, or 10 mM for LOXL2 and LOXL3), 120 μM Amplex Red (Sigma Aldrich) and 1.5 U/mL horseradish peroxidase (Sigma Aldrich) prepared in 1.2 M urea, 50 mM sodium borate buffer (pH 8.2) were then added to the corresponding wells. The above volumes were doubled in the case of 96 wells plate. The fluorescence (RFU) was read every 2.5 min for 30 min at a range of temperatures from 37° to 45° C., excitation 565 nm and emission 590 (Optima; BMG labtech). The slope of the kinetics for each well was calculated using MARS data analysis software (BMG labtech) and this value was used to deduce the IC50 value (Dotmatics).

Human LOXL2 = target: T2, Human LOXL2 (Homo sapiens, UniProt Q9Y4K0); assay: LOXL2 amine oxidase inhibition, peroxidase-coupled Amplex Red assay; assay type: biochemical; details: 30 min preincubation at 37° C., putrescine substrate
T2 sequence (Q9Y4K0 26-774): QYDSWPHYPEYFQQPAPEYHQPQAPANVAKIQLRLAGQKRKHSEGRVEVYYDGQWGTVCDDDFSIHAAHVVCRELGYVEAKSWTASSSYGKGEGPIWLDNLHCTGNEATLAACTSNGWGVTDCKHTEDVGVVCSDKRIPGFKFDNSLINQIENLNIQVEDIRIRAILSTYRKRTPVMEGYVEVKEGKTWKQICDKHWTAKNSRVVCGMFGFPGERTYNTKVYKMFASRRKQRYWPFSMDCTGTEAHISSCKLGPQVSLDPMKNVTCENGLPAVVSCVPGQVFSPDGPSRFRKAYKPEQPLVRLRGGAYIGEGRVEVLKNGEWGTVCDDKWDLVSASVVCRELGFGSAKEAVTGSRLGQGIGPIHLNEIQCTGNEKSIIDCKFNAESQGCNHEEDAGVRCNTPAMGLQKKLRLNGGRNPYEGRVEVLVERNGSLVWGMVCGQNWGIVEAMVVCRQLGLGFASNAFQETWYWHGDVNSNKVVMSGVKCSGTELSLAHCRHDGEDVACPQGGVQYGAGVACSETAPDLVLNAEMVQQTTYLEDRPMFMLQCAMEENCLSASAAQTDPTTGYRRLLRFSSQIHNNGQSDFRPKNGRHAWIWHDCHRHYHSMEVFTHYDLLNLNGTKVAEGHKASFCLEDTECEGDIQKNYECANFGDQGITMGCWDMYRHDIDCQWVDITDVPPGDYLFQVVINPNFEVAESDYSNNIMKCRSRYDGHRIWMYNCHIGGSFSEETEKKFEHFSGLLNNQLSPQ
Text: as §1
Lysyl oxidase (LOX) is an extracellular copper dependent enzyme which oxidizes peptidyl lysine and hydroxylysine residues in collagen and lysine residues in elastin to produce peptidyl alpha-aminoadipic-delta-semialdehydes. […] There are five LOX family members; these are LOX, LOXL1, LOXL2, LOXL3 and LOXL4. LOX and LOXL family members can be acquired as recombinant active proteins from commercial sources, or extracted from animal tissues like bovine aorta, tendons, pig skin; or prepared from cell cultures. The inhibitory effects of the compounds of the present invention were tested against the given LOX-LOXL preparation using a high-throughput coupled colorimetric method (Holt A. and Palcic M., A peroxidase-coupled continuous absorbance plate-reader assay for flavin monoamine oxidases, copper-containing amine oxidases and related enzymes. Nat. Protoc. 2006; 1: 2498-2505). The assay was developed using either 384 or 96 well format. Briefly, in a standard 384 well plate assay 25 μL of a dilution of any of the isoenzymes and orthologues in 1.2 M urea, 50 mM sodium borate buffer (pH 8.2) were added into each well in the presence of 1 μM mofegiline and 0.5 mM pargyline (to inhibit SSAO and MAO-B and MAO-A, respectively). Test compounds were dissolved in DMSO and tested in a Concentration Response Curve (CRC) with 11 data points, typically in the micromolar or nanomolar range after incubation with the enzyme for 30 min at 37° C. Twenty five μL of a reaction mixture containing twice the KM concentration of putrescine (Sigma Aldrich, e.g. 20 mM for LOX, or 10 mM for LOXL2 and LOXL3), 120 μM Amplex Red (Sigma Aldrich) and 1.5 U/mL horseradish peroxidase (Sigma Aldrich) prepared in 1.2 M urea, 50 mM sodium borate buffer (pH 8.2) were then added to the corresponding wells. The above volumes were doubled in the case of 96 wells plate. The fluorescence (RFU) was read every 2.5 min for 30 min at a range of temperatures from 37° to 45° C., excitation 565 nm and emission 590 (Optima; BMG labtech). The slope of the kinetics for each well was calculated using MARS data analysis software (BMG labtech) and this value was used to deduce the IC50 value (Dotmatics).

For Cc1nn(C/C(F)=C/CN)c(C)c1Cc1ccc(NS(C)(=O)=O)cc1 [Compound 48, (Z)—N-(4-((1-(4-amino-2-fluorobut-2-en-1-yl)-3,5-dimethyl-1H-pyrazol-4-yl)methyl)phenyl)methane-sulfonamide hydrochloride], the IC50 (Bovine LOX) was < 10 µM and the IC50 (Human LOXL2) was < 1 µM.
In the case of Cc1c(Cc2ccc(S(=O)(=O)N(C)C)c(Cl)c2)c(C(C)C)nn1C/C(F)=C/CN [Compound 66, (Z)-4-((1-(4-amino-2-fluorobut-2-en-1-yl)-3-isopropyl-5-methyl-1H-pyrazol-4-yl)methyl)-2-chloro-N,N-dimethylbenzenesulfonamide hydrochloride], the IC50 (Bovine LOX) is reported as < 10 µM and the IC50 (Human LOXL2) is reported as < 1 µM.
For Cc1nn(Cc2ccc(S(=O)(=O)N(C)C)c(Cl)c2)c(C(C)O)c1C/C(F)=C/CN (stereo not drawn) [Compound 63, (Z)-4-((4-(4-amino-2-fluorobut-2-en-1-yl)-5-(l-hydroxyethyl)-3-methyl-1H-pyrazol-1-yl)methyl)-2-chloro-N,N-dimethylbenzenesulfonamide hydrochloride], the IC50 (Bovine LOX) was < 10 µM and the IC50 (Human LOXL2) was < 1 µM.
Cc1nn(C/C(F)=C/CN)c(C)c1Oc1ccc(S(=O)(=O)N(C)C)c(Cl)c1 [Compound 40, (Z)-4-((1-(4-amino-2-fluorobut-2-en-1-yl)-3,5-dimethyl-1H-pyrazol-4-yl)oxy)-2-chloro-N,N-dimethylbenzenesulfonamide] was tested, and the IC50 (Bovine LOX) was < 10 µM and the IC50 (Human LOXL2) was < 1 µM.
CS(=O)(=O)c1cccc(-c2cnn(C/C(F)=C/CN)c2)c1 [Compound 67, (Z)-3-fluoro-4-(4-(3-(methylsulfonyl)phenyl)-1H-pyrazol-1-yl)but-2-en-1-amine hydrochloride] was tested, and the IC50 (Bovine LOX) was < 10 µM and the IC50 (Human LOXL2) was < 1 µM.
For Cc1nn(C/C(F)=C/CN)c(C)c1Cc1ccc(S(=O)(=O)C(F)(F)F)cc1 [Compound 44, (Z)-4-(3,5-dimethyl-4-(4-((trifluoromethyl)sulfonyl)benzyl)-1H-pyrazol-1-yl)-3-fluorobut-2-en-1-amine hydrochloride], the IC50 (Bovine LOX) was < 10 µM and the IC50 (Human LOXL2) was < 1 µM.
With Cc1nn(C/C(F)=C/CN)c(C(C)C)c1Cc1ccc(S(=O)(=O)N(C)C)c(Cl)c1 [Compound 65, (Z)-4-((1-(4-amino-2-fluorobut-2-en-1-yl)-5-isopropyl-3-methyl-1H-pyrazol-4-yl)methyl)-2-chloro-N,N-dimethylbenzenesulfonamide hydrochloride] the IC50 (Bovine LOX) was < 10 µM and the IC50 (Human LOXL2) was < 1 µM.
With Cc1nn(C/C(F)=C/CN)c(C(C)C)c1Cc1ccc(S(C)(=O)=O)nc1 [Compound 43, (Z)-3-fluoro-4-(5-isopropyl-3-methyl-4-((6-(methylsulfonyl)pyridin-3-yl)methyl)-1H-pyrazol-1-yl)but-2-en-1-amine dihydrochloride] the IC50 (Bovine LOX) was < 10 µM and the IC50 (Human LOXL2) was < 1 µM.
For Cc1c(Cc2ccc(S(=O)(=O)N(C)C)cc2)c(C(C)(C)C)nn1C/C(F)=C/CN [Compound 50, (Z)-4-((1-(4-amino-2-fluorobut-2-en-1-yl)-3-(tert-butyl)-5-methyl-1H-pyrazol-4-yl)methyl)-N,N-dimethylbenzenesulfonamide hydrochloride], the IC50 (Bovine LOX) was < 10 µM and the IC50 (Human LOXL2) was < 1 µM.
In the case of CNS(=O)(=O)c1ccc(Cc2c(C)nn(C/C(F)=C/CN)c2C)cc1OC(F)(F)F [Compound 45, (Z)-4-((1-(4-amino-2-fluorobut-2-en-1-yl)-3,5-dimethyl-1H-pyrazol-4-yl)methyl)-N-methyl-2-(trifluoromethoxy)benzenesulfonamide hydrochloride], the IC50 (Bovine LOX) is reported as < 10 µM and the IC50 (Human LOXL2) is reported as < 1 µM.
Cc1nn(C/C(F)=C/CN)c(C)c1Cc1ccc(S(=O)(=O)C(C)C)c(Cl)c1 [Compound 49, (Z)-4-(4-(3-chloro-4-(isopropylsulfonyl)benzyl)-3,5-dimethyl-1H-pyrazol-1-yl)-3-fluorobut-2-en-1-amine hydrochloride] was tested, and the IC50 (Bovine LOX) was < 10 µM and the IC50 (Human LOXL2) was < 1 µM.
For Cc1nn(C/C(F)=C/CN)c(Cl)c1-c1cccc(S(=O)(=O)N(C)C)c1 [Compound 35, (Z)-3-(1-(4-amino-2-fluorobut-2-en-1-yl)-5-chloro-3-methyl-1H-pyrazol-4-yl)-N,N-dimethylbenzenesulfonamide hydrochloride], the IC50 (Bovine LOX) was < 10 µM and the IC50 (Human LOXL2) was < 1 µM.
